Measured values: US20040115792A1, “Yeast strain for testing the geno- and cytotoxicity of complex environmental contaminations” (priority 2000, published 2004)

Key:
[1] = test system: cytochrome-P450-dependent aromatase; settings: marine gastropods; Bettin et al. 1995; cited from earlier work
[2] = test system: pdr5yor1snq2 triple-mutant yeast strain; experiment: Growth and fluorescence test in the presence of inhibitors, pdr5yor1snq2 triple-mutant strain; format: cell-based, Saccharomyces cerevisiae; settings: 0.05 and 0.5 ng/ml mitomycin C, 0.01 and 0.1 ng/ml TPhT, 30° C., 8 hours
[3] = test system: rad54::egfp reporter in yeast strain HLY5RG-12B2; experiment: Genotoxic signaling: egfp under rad54 promoter, green fluorescence; settings: depending on concentration: mitomycin C 0.05 and 0.5 ng/ml, TPhT 0.01 and 0.1 ng/ml, 8 hours, 30° C.
Protocol: (§1) Cultures of Saccharomyces cerevisiae wild strain, of the pdr5yor1snq2 triple-mutant yeast strain and of the genotoxically and cytotoxically signaling strain HLY5RG-12B2 expressing Dsred and egfp were grown in complete medium YPD (2% yeast extract, 1% peptone) with 2% D-glucose, pH 5.0, at 30° C. over night with shaking.
Subsequently, a spectral excitation at 489 nm was performed for the genotoxic substance testing, and the intensity of the emission maxima at 508 nm (specific of egfp) was measured for all cell suspensions.

[4] = test system: Saccharomyces cerevisiae wild strain; experiment: Growth and fluorescence test in the presence of inhibitors, wild strain; format: cell-based; settings: 0.05 and 0.5 ng/ml mitomycin C, 0.01 and 0.1 ng/ml TPhT, 30° C., 8 hours
[5] = test system: pma1-DsRed1 reporter in yeast strain HLY5RG-12B2; experiment: Cytotoxic signaling: DsRed1 under pma1 promoter, red fluorescence; settings: depending on concentration: mitomycin C 0.05 and 0.5 ng/ml, TPhT 0.01 and 0.1 ng/ml, 8 hours, 30° C.
Protocol: as §1
For the cytotoxic substance testing, a spectral excitation at 558 nm was performed, and the intensity of the emission maxima at 583 nm (specific of DsRedp) was measured for all cell suspensions. In addition, a determination of the simple growth of the cells by measuring the optical density at 600 nm was performed.

Substance	effect on aromatization of androgens into estrogens [1]	growth rate (doubling time) [2] [min]	specific red (583 nm) or green (508 nm) fluorescence [2]	green fluorescence, emission maximum 508 nm (genotoxic potential) [3]	growth rate (doubling time) [4] [min]	specific red (583 nm) or green (508 nm) fluorescence [4]	red fluorescence, emission maximum 583 nm (cytotoxic potential) [5]
tributyltin [TBT]	inhibits the aromatization of androgens into estrogens	–	–	–	–	–	–
triphenyltin [TPhT]	–	180	without showing a specific red (cytotoxic potential) or green (genotoxic potential) fluorescence	no increasing green fluorescence	90	without showing a specific red (cytotoxic potential) or green (genotoxic potential) fluorescence	increasing specific red fluorescence
